In PMC6017655, “In Silico and in Vitro-Guided Identification of Inhibitors of Alkylquinolone-Dependent Quorum Sensing in Pseudomonas aeruginosa” (Molecules : A Journal of Synthetic Chemistry and Natural …, 2018):
Read-outs that look alike come from different tables or passages of the source.

How the values were obtained:
Plasma stability, rat = assay type: in vitro ADME; settings: 37 °C, up to 2 h, read-out: Plasma Stability Rat t1/2
Experimental: (§1) Dilutions of a 10 mM test compound DMSO stock solution were prepared so that the final DMSO concentration was 1% v/v and the final test compound concentration tested was 1 µM. Following the addition of the test compound to plasma, the samples were pre-incubated for 10 min prior to the start of the incubation by the addition of the test compound. The test compound was incubated (n = 2; 1 µM final concentration) at 37 °C with plasma for up to 2 h. Aliquots were sampled at several time points and mixed with acetonitrile (containing internal standard) to terminate the reaction and precipitate the proteins. All the samples were mixed, centrifuged and the supernatants analysed by UPLC-MSMS. Parent disappearance and half-life (t 1/2) values were determined from the slope of the parent depletion curve. Control compounds (imidapril, enalapril, tenofovir and/or propantheline), were respectively included.

[1] = Hepatic microsomal stability, human; assay type: in vitro ADME; settings: liver microsomes, pH 7.4, 0.5 mg/mL protein, NADPH, 37 °C; for half-life at 1 µM: read-out: Microsomal Stability Human t1/2
Experimental: (§2) Dilutions of a 1 mM test compound DMSO stock solution were prepared in buffer (typically 0.01 M phosphate buffered saline (pH 7.4) so that the final DMSO concentration was 0.1% v/v and the final test compound concentration tested was 1 µM. Following addition of protein (0.5 mg/mL final) and NADPH, the samples were pre-incubated for 10 min prior to the start of the incubation by the addition of test compound. The test compounds were then incubated (n = 2; 1 µM final concentration) at 37 °C with tissue microsomes. Aliquots were sampled at several time points and mixed with acetonitrile (containing internal standard) to terminate the reaction and precipitate the proteins. All the samples were mixed, centrifuged and the supernatants analysed by UPLC-MS/MS. The intrinsic clearance (Clint) and half-life (t 1/2) values were determined from the slope of the parent depletion curve. Control compounds for low, moderate and high intrinsic clearance, respectively, for both human and rat microsomes, were included.

[2] = tested on: PqsR (pqsA promoter, PAO1-L mCTX::PpqsA-lux); test: Whole cell biosensor reporter assay, PAO1-L mCTX::PpqsA-lux; assay type: cell-based, Pseudomonas aeruginosa; settings: for IC50: Mean ± SD, n = 3; for activity at 10 µM: PAO1, read-out: PAO1-L Remaining Activity %; for PqsR inhibitory activity (in words), PAO1-L: screen at 10 µM / dose-response
Experimental: (§3) To determine the ability of the quinolines to inhibit PqsR functionality, the P. aeruginosa biosensor strains, PAO1-L and PA14, incorporating a chromosomal mCTX::PpqsA-lux transcriptional fusion, were used. These report on the activation of the pqsA promoter, regulated by PqsR [25]. PAO1-L and PA14 were chosen because they are genetically amenable and belong to the two major P. aeruginosa genomic groups. The quinolone compounds were incubated with the corresponding strain, and luminescence and optical density readings were recorded to monitor the effect of the quinolines on PqsR activity and bacterial growth, respectively. The compounds were screened at 10 µM concentration, and the activity was compared to a control of DMSO (0.1%) (Figure 3a). To be considered a hit, a threshold of at least 50% inhibition of the test compound, relative to the negative control had to be reached, without affecting bacterial growth. […] Concentration-response experiments were then carried out to determine the IC50 values (Figure 3b,c), which are summarised in Table 1.
(§4) Strains PA14 mCTX::PpqsA-lux and PAO1-L mCTX::PpqsA-lux were constructed using plasmid mini-CTX::PpqsA-lux, as previously described, and the assay was performed according to a published protocol. For screening, the compounds were tested at a concentration of 10 µM, which was prepared from a 10 mM stock, in DMSO.

[3] = tested on: PqsR (pqsA promoter, PA14 mCTX::PpqsA-lux); test: Whole cell biosensor reporter assay, PA14 mCTX::PpqsA-lux; assay type: cell-based, Pseudomonas aeruginosa; settings: for IC50: Mean ± SD, n = 3; for activity at 10 µM: PA14, read-out: PA14 Remaining Activity %; for PqsR inhibitory activity (in words), PA14: screen at 10 µM
Experimental: as §3, §4

PAO1-L = test: Bacterial growth (optical density) in reporter assay, PAO1-L; assay type: cell-based, Pseudomonas aeruginosa; settings: compound vs DMSO control
Experimental: as §3
(§5) Figure 3 Whole bacterial cell-based P. aeruginosa compound screen for both PqsR and growth inhibition (a) Activity against PA14 (green) and PAO1-L (purple) PpqsA-lux reporter strains at 10 µM test compound; (b) and (c) Dose-response curves for active compounds against PA14 (b) and PAO1-L (c); (d) and (e) growth curves for PA14 (d) and PAO1-L (e) in the presence of compound or DMSO control.

[4] = Hepatic microsomal stability, rat; assay type: in vitro ADME; settings: liver microsomes, pH 7.4, 0.5 mg/mL protein, NADPH, 37 °C; for microsomal CLint at 1 µM: read-out: Microsomal Stability Rat Clint (intrinsic clearance); for half-life at 1 µM: read-out: Microsomal Stability Rat t1/2
Experimental: as §2

PA14 = test: Bacterial growth (optical density) in reporter assay, PA14; assay type: cell-based, Pseudomonas aeruginosa; settings: compound vs DMSO control
Experimental: as §3, §5

Plasma stability, human = assay type: in vitro ADME; settings: 37 °C; for half-life at 1 µM: human, plasma, up to 2 h, read-out: Plasma Stability Human t 1/2
Experimental: as §1

PAO1-L biofilms = test: Biofilm assay on glass coverslips, GFP-labelled PAO1-L; assay type: cell-based, Pseudomonas aeruginosa; settings: Ia 34 µM; tobramycin 100 µg/mL for 4 h
Experimental: (§6) One of the clinical challenges of P. aeruginosa infections is the difficulty associated with the effective treatment of biofilms due to their high resistance to antibiotics. […] The effect of Ia, with or without tobramycin, on PA14 and PAO1-L biofilms grown on glass coverslips, was determined. […] The experiment was performed using green fluorescent labelled (GFP)-labelled PAO1-L and PA14 strains, grown under four different conditions: (i) no treatment (control); (ii) compound Ia at 8 µM in PA14 and 34 µM in PAO1-L (concentrations equal to 3× IC50); (iii) tobramycin at 100 µg/mL; (iv) Ia and tobramycin, at the same concentrations as (ii) and (iii).
(§7) Biofilms were cultivated on borosilicate glass coverslips in petri dishes. P. aeruginosa strains, PAO1-L and PA14, were labelled by transformation with plasmid pMMG, which constitutively expresses GFP from the Ptac promoter. Labelled strains were grown at 37 °C, for 16 h, in 2 mL RPMI-1640 (Lonza, Slough, UK), supplemented with 20 mM D-glucose (Sigma–Aldrich, Dorset, UK) and 2 µM FeCl3 (Sigma–Aldrich, Dorset, UK). Cultures were diluted 1:100 in fresh medium and allowed to grow for a further 4 h, or until an OD600 of 0.5 was reached. The mid-logarithmic cultures were diluted to an OD600 of 0.01 in 25 mL RPMI, supplemented with glucose and FeCl3, and inoculated into petri dishes containing UV sterilised borosilicate glass coverslips (22 × 22 mm, thickness no1) (VWR, Lutterworth, UK). Bacterial cells were seeded at 37 °C under static conditions for 1.5 h, and compound Ia was added to the culture at a concentration of 34 µM for P. aeruginosa PAO1-L and 8 µM for PA14 before dishes were moved to a shaker at 60 rpm and 37 °C for 15 h to form mature biofilms. Tobramycin and propidium iodide were added to the 15 h-old cultures at concentrations of 100 µg/mL and 2 µM, respectively, followed by further incubation for 4 h. Coverslips were examined under a Laser Scanning Fluorescent Microscope (LSM2, Zeiss, Oberkochen, Germany). Biofilms were visualised using egfp mode at an excitation wavelength of 488nm. Imaging was carried out using Zen 2011 imaging software (Zeiss, Oberkochen, Germany). A total of 5 Z-stacked images were collected per coverslip. Sampling was conducted at random from the central portion of each coverslip. Biomass was calculated using Image J (NIH, Bethesda, MD, USA) and Comstat 2.1. Software package (www.comstat.dk, lyngby, Denmark).

PA14 biofilms = test: Biofilm assay on glass coverslips, GFP-labelled PA14; assay type: cell-based, Pseudomonas aeruginosa; settings: Ia 8 µM; tobramycin 100 µg/mL for 4 h
Experimental: as §6, §7

AQ production in PAO1-L = test: Alkylquinolone (HHQ, PQS, HQNO) production by LC-MS/MS, PAO1-L; assay type: cell-based, Pseudomonas aeruginosa; settings: 3x IC50, 16 h, culture supernatant
Experimental: (§8) HQNO, can protect Staphylococcus aureus from vancomycin [31] and contributes to the environmental competitiveness of P. aeruginosa, through its activity as a potent inhibitor of the cytochrome bc1 complex. […] LC-MS/MS was used to quantify the major AQs HHQ, PQS and HQNO after incubation of the P. aeruginosa strains with the hit compounds, for 16 h. The assay was performed using both PAO1-L and PA14 strains which were treated with PqsR antagonists at concentrations three-fold higher than their IC50 values. The results obtained depended on the inhibitor and strain tested (Figure 5).
(§9) For each test sample, 100 µL of sterile filtered supernatant (the same preparation as for pyocyanin) was spiked with 10 µL of an internal standard solution (10 µM d4-PQS in MeOH), and diluted with water, to a total volume of 500 µL. Samples were then extracted three times with an 0.5 mL aliquot of ethyl acetate, vortex mixing the aqueous/organic mix for 2 min, then removing the organic phase once the layers had successfully partitioned. For each sample, the combined organic extracts were dried under vacuum and re-dissolved in 100 µL MeOH prior to analysis. For the LC-MS/MS analysis of supernatant extracts, the chromatography was achieved using a Shimadzu series 10AD VP LC system (Columbia, MD, USA). The LC column, maintained at 40 °C, was a Phenomenex Gemini C18 (3.0 µm, 100 × 3.0 mm) (Macclesfield, Cheshire, UK) with an appropriate guard column. Mobile phase A was 0.1% (v/v) formic acid in water containing 2 mM 2-picolinic acid, and mobile phase B 0.1% (v/v) formic acid in methanol. The flow rate throughout the chromatographic separation was 450 µL/min. After an injection of a 2 µL/sample, a binary gradient, beginning initially at 30% B, increased linearly to 99% B over 5 min. The composition remained at 99% B for 3 min, decreased to 30% B over 1 min, and stayed at this composition for 4 min, to allow for column equilibration. […] Where chromatographic peaks for HHQ, HQNO and PQS were detected, a peak area was determined, and analyte peak area/internal standard peak area calculated.

AQ production in PA14 = test: Alkylquinolone (HHQ, PQS, HQNO) production by LC-MS/MS, PA14; assay type: cell-based, Pseudomonas aeruginosa; settings: 3x IC50, 16 h, culture supernatant
Experimental: as §8, §9

[5] = Pseudomonas aeruginosa, PAO1, read-out: IC50 PAO1-L, PpqsA-lux reporter
[6] = read-out: IC50 PAO1-L, PpqsA-lux reporter
[7] = Pseudomonas aeruginosa, PA14, read-out: IC50 PA14, PpqsA-lux reporter

| SMILES | half-life at 1 µM (Plasma stability, rat) | microsomal CLint at 1 µM [1] | half-life at 1 µM [1] | IC50 [2, 5] | activity at 10 µM ([2]; Pseudomonas aeruginosa) | IC50 [2, 6] | PqsR inhibitory activity (in words), PAO1-L [2] | IC50 [3, 7] | activity at 10 µM ([3]; Pseudomonas aeruginosa) | PqsR inhibitory activity (in words), PA14 [3] | Effect on bacterial growth, PAO1-L (PAO1-L) | microsomal CLint at 1 µM [4] | half-life at 1 µM [4] | Effect on bacterial growth, PA14 (PA14) | half-life at 1 µM (Plasma stability, human) | further results |
| --- | --- | --- | --- | --- | --- | --- | --- | --- | --- | --- | --- | --- | --- | --- | --- | --- |
| CC(=O)N1N=C(c2ccccc2)CC1c1cccc(Nc2ccnc3cc(C(F)(F)F)ccc23)c1 (centres unmarked) [IIi] | > 240 min | 72.9 µL/min/mg | 19 min | 5 µM | 26.1 ± 0.99% | 5.14 ± 0.6 µM | strong PqsR inhibitory activity | 5 µM | 16.8 ± 1.01% | strong PqsR inhibitory activity | without interfering with bacterial growth | 65.7 µL/min/mg | 21.1 min | without interfering with bacterial growth | 157 min | IC50 ([3]; read-out: IC50 PA14, PpqsA-lux reporter): 4.9 ± 0.3 µM; Plasma stability (in words), human plasma (Plasma stability, human; 1 µM): greatest plasma stability |
| NC[C@H]1O[C@H](O[C@H]2[C@H](O)[C@@H](O[C@H]3O[C@H](CO)[C@@H](O)[C@H](N)[C@H]3O)[C@H](N)C[C@@H]2N)[C@H](N)C[C@@H]1O [tobramycin, reference compound] | – | – | – | – | – | – | – | – | – | – | – | – | – | – | – | Effect on biofilm biomass, PAO1-L (PAO1-L biofilms): significantly reduced biofilm biomass; Effect on cell viability in biofilm (propidium iodide), PAO1-L (PAO1-L biofilms): increasing the proportion of dead bacterial cells substantially; Effect on biofilm biomass, PA14 (PA14 biofilms): significantly reduced biofilm biomass; Effect on cell viability in biofilm (propidium iodide), PA14 (PA14 biofilms): increasing the proportion of dead bacterial cells substantially |
| O=CN1N=C(c2ccccc2)CC1c1cccc(Nc2ccnc3cc(C(F)(F)F)ccc23)c1 (centres unmarked) [Ii] | > 240 min | 80.7 µL/min/mg | 17.2 min | 5 µM | 15.6 ± 2.53% | 5.1 ± 0.32 µM | strong PqsR inhibitory activity | 5 ± 0.82 µM | 16.6 ± 1.3% | strong PqsR inhibitory activity | without interfering with bacterial growth | 54.1 µL/min/mg | 25.7 min | without interfering with bacterial growth | 69.1 min | Inhibition of AQ production (in words), PAO1-L (AQ production in PAO1-L): greatest inhibition; Inhibition of AQ production (in words), PA14 (AQ production in PA14): not observed |
